Earlier results on 1 molecule are cited in patent publication US20240398831A1, “COMPOSITIONS COMPRISING SMALL MOLECULE REGULATORS OF TUMOR IMMUNITY AND METHODS OF USING SAME” (Duke University, priority 2021, published 2024).

Molecules are shown by their SMILES.

The test system of this series is melanoma. The settings on record: human, in vivo; cited from earlier work.

As to `CC/C(=C(\c1ccccc1)c1ccc(OCCN(C)C)cc1)c1ccccc1` [tamoxifen], the “results of studies in melanoma patients” value is given as “equivocal”.
